Experimental data as given in ChEMBL document CHEMBL5154803, “Spermine-Conjugated Short Proline-Rich Lipopeptides as Broad-Spectrum Intracellular Targeting Antibacterial Agents” (J Med Chem, 2022).
Values after ≈ are worked out from the molar mass of the structure shown. Active and inactive are the calls of the source. No cut-off for these calls is given here. Where a SMILES comes first, the peptide text is derived from it. The star is where a group is joined. Lauroyl = CCCCCCCCCCCC(=O)*; Decanoyl = CCCCCCCCCC(=O)*; Spermine = NCCCNCCCCNCCCN*

Tests used:
[1] = Acute toxicity in BALB/c mouse assessed as mouse survival at 10 mg/kg, ip measured for 7 days; assay type: organism-based; details: in vivo, time 7 day
[2] = Cytotoxicity against human THP-1 cells assessed as cell viability at 100 uM by MTT assay; assay type: toxicity, cell-based; details: read-out: Activity
Escherichia coli [3] = test: Antibacterial activity against Escherichia coli ATCC 25922 assessed as reduction in bacterial growth measured after 18 hrs by broth microdilution method; assay type: functional
[4] = target: Bacterial 70S ribosome (Bacteria) (UniProt P0A7V0+P60723+P0AG67+P0A7R5+P0A7R9+P0A7S3+P0A7S9+P0AG59+P0ADZ4+P0A7T3+P0AG63+P0A7T7+P0A7U3+P0A7U7+P68679+P0A7V3+P0A7V8+P0A7W1+P02358+P02359+P0A7W7+P0A7X3+P0A7J3+P0A7J7+P0AA10+P0ADY3+P02413+P0ADY7+P0AG44+P0C018+P0A7K6+P0A7L0+P0A7L3+P0AG48+P61175+P0ADZ0+P60624+P68919+P0A7L8+P0A7M2+P0A7M6+P60422+P0AG51+P0A7N1+P0A7M9+P0A7N4+P0A7N9+P0A7P5+P0A7Q1+Q2EEQ2+P0A7Q6+P60438+P62399+P0AG55+P0A7K2); test: Inhibition of 70S ribosome-mediated protein synthesis in Escherichia coli at 5XMIC incubated for 1 hr by renilla luciferase based luminescence assay; assay type: subcellular
[5] = Acute toxicity in BALB/c mouse assessed as effect on locomotor activity at 10 mg/kg, ip measured for 7 days; assay type: organism-based; details: in vivo, 168 h, time 7 day
[6] = system: Staphylococcus epidermidis; test: Antibacterial activity against methicillin-resistant Staphylococcus epidermidis ATCC 51625 assessed as reduction in bacterial growth measured after 18 hrs by broth microdilution method; assay type: functional
Pseudomonas aeruginosa = test: Antibacterial activity against Pseudomonas aeruginosa ATCC BAA-427 assessed as reduction in bacterial growth measured after 18 hrs by broth microdilution method; assay type: functional
Escherichia coli [7] = test: Antibacterial activity against Escherichia coli MRE600 assessed as reduction in bacterial growth measured after 18 hrs by broth microdilution method; assay type: functional
Escherichia coli [8] = test: Antibacterial activity against Escherichia coli ATCC 25922 assessed as reduction in bacterial growth measured after 18 hrs in presence of 10% v/v human serum in MHB by broth microdilution method; assay type: functional; details: ATCC 25922, Serum
Erythrocyte = test: Hemolytic activity against human RBC assessed as hemolysis upto 100 uM incubated for 1 hr by ELISA plate reader analysis; assay type: toxicity, cell-based
Staphylococcus aureus [9] = test: Additive antibacterial activity against MDR-methicillin-resistant Staphylococcus aureus ATCC BAA-44 assessed as rifampicin MIC by checkerboard assay; assay type: functional
Staphylococcus aureus [10] = test: Additive antibacterial activity against MDR-methicillin-resistant Staphylococcus aureus ATCC BAA-44 assessed as fractional inhibitory concentration index in presence of gentamicin by checkerboard assay; assay type: functional
Staphylococcus aureus [11] = test: Additive antibacterial activity against MDR-methicillin-resistant Staphylococcus aureus ATCC BAA-44 assessed as fractional inhibitory concentration index in presence of rifampicin by checkerboard assay; assay type: functional
Staphylococcus aureus [12] = test: Synergistic antibacterial activity against MDR-methicillin-resistant Staphylococcus aureus ATCC BAA-44 assessed as ampicillin MIC by checkerboard assay; assay type: functional
Staphylococcus aureus [13] = test: Synergistic antibacterial activity against MDR-methicillin-resistant Staphylococcus aureus ATCC BAA-44 assessed as fold change in ampicillin MIC by checkerboard assay; assay type: functional
Staphylococcus aureus [14] = test: Additive antibacterial activity against MDR-methicillin-resistant Staphylococcus aureus ATCC BAA-44 assessed as tetracycline MIC by checkerboard assay; assay type: functional
Cell membrane [15] = test: Disruption of bacterial cell membrane in Escherichia coli ATCC 25922 assessed as proportion of bacteria with damaged cell membrane at 1X MIC incubated for 1 hr by PI staining based flow cytometric analysis (Rvb =0.7%); assay type: subcellular
Escherichia coli [16] = test: Bacteriostatic activity against Escherichia coli ATCC 25922 at 1XMIC incubated for 4 hrs followed by plating on MHII agar pate for 24 hrs; assay type: functional, organism-based; details: time 28.0 hrs
Cell membrane [17] = test: Disruption of bacterial cell membrane in Escherichia coli ATCC 25922 assessed as proportion of bacteria with damaged cell membrane at 5X MIC incubated for 1 hr by PI staining based flow cytometric analysis (reference value: 0.7%); assay type: subcellular
Acinetobacter baumannii = test: Antibacterial activity against Acinetobacter baumannii i ATCC 19606 assessed as reduction in bacterial growth measured after 18 hrs by broth microdilution method; assay type: functional
trypsin = trypsin (Homo sapiens, UniProt P07477+P07478+P35030); test: Stability of compound assessed as trypsin (unknown origin)-mediated compound degradation by measuring parent compound remaining at 150 uM measured upto 4 hrs by RP-HPLC method; assay type: ADME, protein assay; details: read-out: Stability
Staphylococcus aureus [18] = test: Synergistic antibacterial activity against MDR-methicillin-resistant Staphylococcus aureus ATCC BAA-44 assessed as fold change in chloramphenicol MIC by checkerboard assay; assay type: functional
Staphylococcus aureus [19] = test: Antibacterial activity against MDR-methicillin-resistant Staphylococcus aureus ATCC BAA-44 assessed as reduction in bacterial growth measured after 18 hrs by broth microdilution method; assay type: functional
Cell membrane [20] = test: Disruption of bacterial cell membrane in Escherichia coli ATCC 25922 assessed as proportion of bacteria with intact cell membrane at 1X MIC incubated for 1 hr by PI staining based flow cytometric analysis (reference value: 99.3%); assay type: subcellular
Staphylococcus aureus [21] = test: Synergistic antibacterial activity against MDR-methicillin-resistant Staphylococcus aureus ATCC BAA-44 assessed as fold change in neomycin MIC by checkerboard assay; assay type: functional
Staphylococcus aureus [22] = test: Synergistic antibacterial activity against MDR-methicillin-resistant Staphylococcus aureus ATCC BAA-44 assessed as fractional inhibitory concentration index in presence of neomycin by checkerboard assay; assay type: functional
[23] = Cytotoxicity against human THP-1 cells assessed as cell viability at 50 uM by MTT assay; assay type: toxicity, cell-based; details: read-out: Activity
Staphylococcus aureus [24] = test: Additive antibacterial activity against MDR-methicillin-resistant Staphylococcus aureus ATCC BAA-44 assessed as gentamicin MIC by checkerboard assay; assay type: functional
Staphylococcus aureus [25] = test: Synergistic antibacterial activity against MDR-methicillin-resistant Staphylococcus aureus ATCC BAA-44 assessed as fractional inhibitory concentration index in presence of chloramphenicol by checkerboard assay; assay type: functional
Staphylococcus aureus [26] = test: In vivo antibacterial activity against Staphylococcus aureus ATCC 25923 infected in BALB/c mouse model assessed as reduction of bacterial load in kidney at 5 mg/kg, ip administered as single dose measured after 24 hrs by colony counting based analysis (reference value: 2X10^4 CFU); assay type: functional
Cell membrane [27] = test: Disruption of bacterial cell membrane in Escherichia coli ATCC 25922 assessed as proportion of bacteria with intact cell membrane at 5X MIC incubated for 1 hr by PI staining based flow cytometric analysis (reference value: 99.3%); assay type: subcellular
Staphylococcus aureus [28] = test: Antibacterial activity against Staphylococcus aureus ATCC 25923 assessed as reduction in bacterial growth measured after 18 hrs by broth microdilution method; assay type: functional
Staphylococcus aureus [29] = test: Synergistic antibacterial activity against MDR-methicillin-resistant Staphylococcus aureus ATCC BAA-44 assessed as neomycin MIC by checkerboard assay; assay type: functional

Row | SMILES | survival at 168 h [1] | viability at 100 µM [2] | MIC (Escherichia coli [3]) | inhibition [4] | Activity [5] | MIC [6] | MIC (Pseudomonas aeruginosa) | MIC (Escherichia coli [7]) | MIC (Escherichia coli [8]) | Activity (Erythrocyte) | MIC (Staphylococcus aureus [9]) | fractional inhibitory concentration index (FICI) (Staphylococcus aureus [10]) | fractional inhibitory concentration index (FICI) (Staphylococcus aureus [11]) | MIC (Staphylococcus aureus [12]) | fold change (FC) (Staphylococcus aureus [13]) | MIC (Staphylococcus aureus [14]) | Activity (Cell membrane [15]) | Activity (Escherichia coli [16]) | Activity (Cell membrane [17]) | MIC (Acinetobacter baumannii) | also measured
1 | CCCCCCCCCC(=O)N1CCC[C@H]1C(=O)N[C@@H](CCCNC(=N)N)C(=O)N1CCC[C@H]1C(=O)N[C@@H](CCCNC(=N)N)C(=O)N1CCC[C@H]1C(=O)N1CCC[C@H]1C(=O)N[C@@H](CCCNC(=N)N)C(=O)NCCCNCCCCNCCCN (Decanoyl-PRPRPPR-Spermine) | 100% | 80% | 3.1 µM (≈ 3.76 µg/mL) | Active | Non-Toxic | 3.1 µM (≈ 3.76 µg/mL) | 6.2 µM (≈ 7.52 µg/mL) | 3.1 µM (≈ 3.76 µg/mL) | 6.2 µM | Non-Toxic | 0.625 µg/mL | 0.745 | 0.625 | 7.81 µg/mL | 2 | 31.2 µg/mL | 6.11% | Active | 9.56% | 6.2 µM (≈ 7.52 µg/mL) | remaining at 4 h, 150 µM (trypsin): > 80%; fold change (FC) (Staphylococcus aureus [18]): 1; MIC (Staphylococcus aureus [19]): 3.1 µM (≈ 3.76 µg/mL); Activity (Cell membrane [20]): 93.9%; fold change (FC) (Staphylococcus aureus [21]): 1.6; fractional inhibitory concentration index (FICI) (Staphylococcus aureus [22]): 0.312; viability at 50 µM [23]: 94%; MIC (Staphylococcus aureus [24]): 1.25 µg/mL; fractional inhibitory concentration index (FICI) (Staphylococcus aureus [25]): 2; Activity (Staphylococcus aureus [26]): <4 10^2CFU; Activity (Cell membrane [27]): 90.4%; MIC (Staphylococcus aureus [28]): 3.1 µM (≈ 3.76 µg/mL); MIC (Staphylococcus aureus [29]): 7.81 µg/mL
2 | CCCCCCCCCCCC(=O)N1CCC[C@H]1C(=O)N[C@@H](CCCNC(=N)N)C(=O)N1CCC[C@H]1C(=O)N[C@@H](CCCNC(=N)N)C(=O)N1CCC[C@H]1C(=O)N1CCC[C@H]1C(=O)N[C@@H](CCCNC(=N)N)C(=O)NCCCNCCCCNCCCN (Lauroyl-PRPRPPR-Spermine) | 100% | 65% | 3.1 µM (≈ 3.85 µg/mL) | Active | Non-Toxic | 1.5 µM (≈ 1.86 µg/mL) | 6.2 µM (≈ 7.7 µg/mL) | 3.1 µM (≈ 3.85 µg/mL) | 3.1 µM | Non-Toxic | 0.625 µg/mL | 0.745 | 1 | 3.9 µg/mL | 4 | 31.2 µg/mL | 7.09% | Active | 27.3% | 6.2 µM (≈ 7.7 µg/mL) | remaining at 4 h, 150 µM (trypsin): > 80%; fold change (FC) (Staphylococcus aureus [18]): 4; MIC (Staphylococcus aureus [19]): 1.5 µM (≈ 1.86 µg/mL); Activity (Cell membrane [20]): 92.9%; fold change (FC) (Staphylococcus aureus [21]): 1.6; fractional inhibitory concentration index (FICI) (Staphylococcus aureus [22]): 0.312; viability at 50 µM [23]: 79%; MIC (Staphylococcus aureus [24]): 1.25 µg/mL; fractional inhibitory concentration index (FICI) (Staphylococcus aureus [25]): 0.5; Activity (Staphylococcus aureus [26]): <4 10^2CFU; Activity (Cell membrane [27]): 72.7%; MIC (Staphylococcus aureus [28]): 1.5 µM (≈ 1.86 µg/mL); MIC (Staphylococcus aureus [29]): 7.81 µg/mL
